# In US7144591B2, “Composition containing citronella java oil and use thereof for repelling insects” (priority 2002, dated 2006):
# System: Aedes aegypti (yellow fever mosquitoes)
# Test: Repellent activity with respect to mosquitoes, treated forearm in cage (Swiss Tropic Institute method)
# Type: in vivo
# Settings: 2 ml on 250 cm^2 forearm, 400 mosquitoes in cage, hourly 10 min exposure
smiles,measurement,value
"O=C(O)CC(O)(CC(=O)O)C(=O)O [PC4, citric acid]",repellent activity with respect to mosquitoes (result in words),surprisingly bad results
